Results on nine compounds are retold here after US11986471B2, “Compounds and methods of use” (Tango Therapeutics, Inc., priority 2018, dated 2024).

For experiment [1], the target named is T1, PRMT5 (Homo sapiens, UniProt O14744).
T1 construct: purchased Viva (custom protein)
Kind of experiment: PRMT5 IC50 assay with no cofactor. It counts as biochemical. Summed up: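 Values reflect IC50 (μM) on human PRMT5 under three cofactor states. Selectivity is derived as the quotient of SAM-state Ki over MTA-state Ki, with each Ki obtained from its IC50.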

The next experiment deals with HAP1 MTAP-deleted. Kind of experiment: SDMA in-cell western assay, HAP1 MTAP-deleted cell line. Particulars: for IC50: Homo sapiens, HAP1 MTAP-deleted cell line; for MTAP Intact/Deleted Ratio: IC50 ratio HAP1 MTAP-intact / HAP1 MTAP-deleted. Type of experiment: cell-based. Summed up: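 In-cell western for SDMA marks; MTAP-deleted (null) HAP1 background; values given as IC50.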

Another experiment concerns HAP1 MTAP-intact. Description: SDMA in-cell western assay, HAP1 MTAP-intact cell line. Type of experiment: cell-based. The note with it: Homo sapiens. Summed up:
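Using an MTAP-isogenic HAP1 cell pair, inhibition of SDMA formation is read by in-cell western and expressed as IC50. MTAP-selectivity is assigned where the ratio between lines reaches 3 fold or greater.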

Experiment [2] concerns the target T1, PRMT5. Description: PRMT5 IC50 assay in the presence of MTA as cofactor. It counts as biochemical. The note with it: for IC50: PRMT5, MTA as cofactor. Summed up: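 Three cofactor conditions tested for PRMT5 inhibition: none, MTA and SAM, each giving an IC50. For conversion to Ki, the MTA-condition IC50 is divided by 13.5 and the SAM-condition IC50 by 1.5, and the two Ki values are expressed as a SAM/MTA ratio.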

The target in experiment [3] is T1, PRMT5. Description: PRMT5 IC50 assay in the presence of SAM as cofactor. It counts as biochemical. Summed up: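 Three cofactor conditions are run: SAM-bound, MTA-bound and cofactor-free enzyme. IC50 is read from each; for the SAM and MTA arms it is divided by 1.5 and 13.5 respectively to give Ki.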
[4] abbreviates: ratio between the Ki in the presence of SAM and the Ki in the presence of MTA.
[5] abbreviates: ratio between Ki in the presence of SAM and Ki in the presence of MTA.

T1 sequence (O14744 whole entry): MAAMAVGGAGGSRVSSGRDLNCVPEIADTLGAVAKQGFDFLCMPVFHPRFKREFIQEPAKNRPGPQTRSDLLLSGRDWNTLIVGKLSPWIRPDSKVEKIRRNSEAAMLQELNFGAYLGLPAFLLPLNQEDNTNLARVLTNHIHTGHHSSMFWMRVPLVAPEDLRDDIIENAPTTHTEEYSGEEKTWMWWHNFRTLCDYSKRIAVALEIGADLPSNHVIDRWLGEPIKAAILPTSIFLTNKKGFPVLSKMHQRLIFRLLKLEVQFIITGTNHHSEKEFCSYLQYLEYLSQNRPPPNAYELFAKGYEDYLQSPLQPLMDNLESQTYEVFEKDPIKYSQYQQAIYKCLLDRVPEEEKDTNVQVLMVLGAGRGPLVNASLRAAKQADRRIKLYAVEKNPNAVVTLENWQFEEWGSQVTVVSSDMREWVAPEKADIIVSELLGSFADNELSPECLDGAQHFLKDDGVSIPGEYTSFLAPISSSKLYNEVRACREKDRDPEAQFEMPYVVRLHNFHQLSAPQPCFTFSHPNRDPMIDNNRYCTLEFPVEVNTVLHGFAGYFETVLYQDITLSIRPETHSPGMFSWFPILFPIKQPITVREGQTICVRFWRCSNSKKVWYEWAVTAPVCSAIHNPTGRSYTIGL
T1 sequence (Q9BQA1 whole entry partner): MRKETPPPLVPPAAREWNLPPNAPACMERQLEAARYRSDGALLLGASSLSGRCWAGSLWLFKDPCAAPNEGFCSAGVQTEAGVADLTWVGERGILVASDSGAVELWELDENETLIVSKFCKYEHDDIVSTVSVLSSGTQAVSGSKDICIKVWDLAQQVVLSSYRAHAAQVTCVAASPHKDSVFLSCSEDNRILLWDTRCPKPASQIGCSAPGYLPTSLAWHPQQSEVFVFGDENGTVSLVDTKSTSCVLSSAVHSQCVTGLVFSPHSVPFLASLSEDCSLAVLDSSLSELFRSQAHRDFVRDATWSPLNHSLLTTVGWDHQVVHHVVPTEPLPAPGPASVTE

Regarding `Cc1ncoc1COc1ccc2c(c1)CCN(C[C@@H](O)CNC(=O)c1ccnc(NC3CC4(CC4)C3)c1)C2` [Compound 621, (S)—N-(2-hydroxy-3-(6-((4-methyloxazol-5-yl)methoxy)-3,4-dihydroisoquinolin-2(1H)-yl)propyl)-2-(spiro[2.3]hexan-5-ylamino)isonicotinamide], the half-inhibitory concentration (IC50) – broadly, the midpoint of a concentration-inhibition curve – at PRMT5 [1] was 500 to 5000 nM; in the experiment with HAP1 MTAP-deleted, less than 1000 nM; with HAP1 MTAP-intact, less than 1000 nM; at PRMT5 [2] it was 50 to 500 nM; on PRMT5 [3] it was 50 to 500 nM. Further, the “MTAP Intact/Deleted Ratio” value with HAP1 MTAP-deleted is “B* (an IC50 ratio greater than or equal to 3 fold but lower than 10 fold between the IC50 in the HAP1 MTAP-intact cell line and the HAP1 MTAP-deleted cell line)”. For the same compound, the “SAM/MTA Ratio” value at PRMT5 [2] (setting [4]) was “A (a Ki ratio greater than or equal to 10 fold between the Ki in the presence of SAM and the Ki in the presence of MTA)”.

On to `CC(=O)N1CCC(Nc2cc(C(=O)NC[C@H](O)CN3CCc4cc(OCc5ocnc5C)ccc4C3)ccn2)CC1` [Compound 622, (S)-2-((1-acetylpiperidin-4-yl)amino)-N-(2-hydroxy-3-(6-((4-methyloxazol-5-yl)methoxy)-3,4-dihydroisoquinolin-2(1H)-yl)propyl)isonicotinamide], for which the IC50 against PRMT5 [1] is 500 to 5000 nM; in the experiment with HAP1 MTAP-deleted, less than 1000 nM; in the experiment with HAP1 MTAP-intact it was not below 10000 nM; on PRMT5 [2] it was less than 50 nM; at PRMT5 [3], 50 to 500 nM. For the same compound, in the experiment on HAP1 MTAP-deleted, the “MTAP Intact/Deleted Ratio” value was “A* (an IC50 ratio greater than or equal to 10 fold between the IC50 in the HAP1 MTAP-intact cell line and the HAP1 MTAP-deleted cell line)”. In addition, the “SAM/MTA Ratio” value at PRMT5 [2] (setting [4]) was “A (a Ki ratio greater than or equal to 10 fold between the Ki in the presence of SAM and the Ki in the presence of MTA)”.

Regarding `CC(=O)N1CCC(Nc2cc(C(=O)NC[C@H](O)CN3CCc4cc(OCc5ocnc5C)c(F)cc4C3)cc(N3CCCCC3)n2)CC1` [Compound 623], the 50% inhibitory concentration (IC50) against PRMT5 [1] was 50 to 500 nM; in the experiment on HAP1 MTAP-deleted, less than 1000 nM; with HAP1 MTAP-intact, 1000 to 10000 nM; at PRMT5 [2], 50 to 500 nM; at PRMT5 [3] it was 50 to 500 nM. Moreover, in the experiment on HAP1 MTAP-deleted, the “MTAP Intact/Deleted Ratio” value is “A* (an IC50 ratio greater than or equal to 10 fold between the IC50 in the HAP1 MTAP-intact cell line and the HAP1 MTAP-deleted cell line)”. Moreover, the “SAM/MTA Ratio” value on PRMT5 [2] (setting [4]) is “A (a Ki ratio greater than or equal to 10 fold between the Ki in the presence of SAM and the Ki in the presence of MTA)”.

Turning to `Cc1ncoc1COc1ccc2c(c1)CCN(C[C@@H](O)CNC(=O)c1ccnc(NC3CCN(C(=O)C4CC4)CC3)c1)C2` [Compound 624, (S)-2-((1-(cyclopropanecarbonyl)piperidin-4-yl)amino)-N-(2-hydroxy-3-(6-((4-methyloxazol-5-yl)methoxy)-3,4-dihydroisoquinolin-2(1H)-yl)propyl)isonicotinamide], the half-inhibitory concentration (IC50) on PRMT5 [1] (read-out: No Co-factor IC50) was 500 to 5000 nM; in the experiment with HAP1 MTAP-deleted, less than 1000 nM; in the experiment with HAP1 MTAP-intact, 1000 to 10000 nM; on PRMT5 [2], less than 50 nM; at PRMT5 [3], 50 to 500 nM. Besides, in the experiment on HAP1 MTAP-deleted, the “MTAP Intact/Deleted Ratio” value was “A* (an IC50 ratio greater than or equal to 10 fold between the IC50 in the HAP1 MTAP-intact cell line and the HAP1 MTAP-deleted cell line)”. Also, the “SAM/MTA Ratio” value at PRMT5 [2] (setting [5]) is “A (a Ki ratio greater than or equal to 10 fold between the Ki in the presence of SAM and the Ki in the presence of MTA)”.

`CC(=O)N1CCC(Nc2cc(C(=O)NC[C@H](O)CN3CCc4cc(OCc5ocnc5C)c(F)cc4C3)ccn2)CC1` [Compound 625]: the concentration for half-maximal inhibition (IC50) on PRMT5 [1] (read-out: No Co-factor IC50) is 500 to 5000 nM; in the experiment with HAP1 MTAP-deleted, less than 1000 nM; in the experiment on HAP1 MTAP-intact, not below 10000 nM; at PRMT5 [2], 50 to 500 nM; on PRMT5 [3] it was 50 to 500 nM. Besides, the “MTAP Intact/Deleted Ratio” value in the experiment with HAP1 MTAP-deleted is “A* (an IC50 ratio greater than or equal to 10 fold between the IC50 in the HAP1 MTAP-intact cell line and the HAP1 MTAP-deleted cell line)”. The “SAM/MTA Ratio” value at PRMT5 [2] (setting [5]) was “A (a Ki ratio greater than or equal to 10 fold between the Ki in the presence of SAM and the Ki in the presence of MTA)”.

For `CC(=O)N1CCC(Nc2cc(C(=O)NC[C@H](O)CN3CCc4cc(OCc5ocnc5C)ccc4C3)cc(N(C)C3CCC3)n2)CC1` [Compound 628, (S)-2-((1-acetylpiperidin-4-yl)amino)-6-(cyclobutyl(methyl)amino)-N-(2-hydroxy-3-(6-((4-methyloxazol-5-yl)methoxy)-3,4-dihydroisoquinolin-2(1H)-yl)propyl)isonicotinamide], the IC50 on PRMT5 [1] (read-out: No Co-factor IC50) is 500 to 5000 nM; in the experiment on HAP1 MTAP-deleted, less than 1000 nM; with HAP1 MTAP-intact it was 1000 to 10000 nM; at PRMT5 [2], less than 50 nM; at PRMT5 [3] it was 50 to 500 nM. The “MTAP Intact/Deleted Ratio” value in the experiment on HAP1 MTAP-deleted was “B* (an IC50 ratio greater than or equal to 3 fold but lower than 10 fold between the IC50 in the HAP1 MTAP-intact cell line and the HAP1 MTAP-deleted cell line)”. Moreover, the “SAM/MTA Ratio” value at PRMT5 [2] (setting [5]) was “A (a Ki ratio greater than or equal to 10 fold between the Ki in the presence of SAM and the Ki in the presence of MTA)”.

For the compound `CC(=O)N1CCC(Nc2cc(C(=O)NC[C@H](O)CN3CCc4cc(OCc5ocnc5C)ccc4C3)cc(N(C)C)n2)CC1` [Compound 629, (S)-2-((1-acetylpiperidin-4-yl)amino)-6-(dimethylamino)-N-(2-hydroxy-3-(6-((4-methyloxazol-5-yl)methoxy)-3,4-dihydroisoquinolin-2(1H)-yl)propyl)isonicotinamide], the IC50 was 500 to 5000 nM on PRMT5 [1] (read-out: No Co-factor IC50); less than 1000 nM in the experiment with HAP1 MTAP-deleted; 1000 to 10000 nM in the experiment on HAP1 MTAP-intact; 50 to 500 nM on PRMT5 [2]; 50 to 500 nM at PRMT5 [3]. Besides, the “MTAP Intact/Deleted Ratio” value in the experiment with HAP1 MTAP-deleted was “A* (an IC50 ratio greater than or equal to 10 fold between the IC50 in the HAP1 MTAP-intact cell line and the HAP1 MTAP-deleted cell line)”. The “SAM/MTA Ratio” value on PRMT5 [2] (setting [5]) is “A (a Ki ratio greater than or equal to 10 fold between the Ki in the presence of SAM and the Ki in the presence of MTA)”.

As for `CC(=O)N1CC(Nc2cc(C(=O)NC[C@H](O)CN3CCc4cc(OCc5ocnc5C)ccc4C3)cc(N3CCCCC3)n2)C1` [Compound 634], the half-inhibitory concentration (IC50) is 50 to 500 nM at PRMT5 [1] (read-out: No Co-factor IC50); 1000 to 10000 nM in the experiment with HAP1 MTAP-deleted; 1000 to 10000 nM in the experiment with HAP1 MTAP-intact; less than 50 nM at PRMT5 [2]; 50 to 500 nM on PRMT5 [3]. In the experiment with HAP1 MTAP-deleted, the “MTAP Intact/Deleted Ratio” value is “B* (an IC50 ratio greater than or equal to 3 fold but lower than 10 fold between the IC50 in the HAP1 MTAP-intact cell line and the HAP1 MTAP-deleted cell line)”. In addition, the “SAM/MTA Ratio” value at PRMT5 [2] (setting [5]) was “A (a Ki ratio greater than or equal to 10 fold between the Ki in the presence of SAM and the Ki in the presence of MTA)”.

As to `Cc1ncoc1COc1ccc2c(c1)CCN(C[C@@H](O)CNC(=O)c1cc(NC3CCC3)nc(N(C)C3CCC3)c1)C2` [Compound 635], the half-inhibitory concentration (IC50) is not below 5000 nM on PRMT5 [1] (read-out: No Co-factor IC50); less than 1000 nM in the experiment with HAP1 MTAP-deleted; 1000 to 10000 nM in the experiment on HAP1 MTAP-intact; 50 to 500 nM on PRMT5 [2]; 50 to 500 nM on PRMT5 [3]. Also, the “MTAP Intact/Deleted Ratio” value with HAP1 MTAP-deleted was “A* (an IC50 ratio greater than or equal to 10 fold between the IC50 in the HAP1 MTAP-intact cell line and the HAP1 MTAP-deleted cell line)”. For the same compound, the “SAM/MTA Ratio” value at PRMT5 [2] (setting [5]) was “A (a Ki ratio greater than or equal to 10 fold between the Ki in the presence of SAM and the Ki in the presence of MTA)”.
